Results published in publication PMC11521309, “A novel 4-aminoquinoline chemotype with multistage antimalarial activity and lack of cross-resistance with PfCRT and PfMDR1 mutants” (PLOS Pathogens, 2024).
Values joined by “and” are separate entries in the source; they are usually repeats but may differ in a detail not shown here. Identical values can stand only once.

How the values were obtained:
[1] = system: P. falciparum Dd2^T93S; set-up: key to Phenotype, Dd2^T93S: S: sensitive; R: resistant; settings: cited from earlier work
[2] = system: P. falciparum 7G8^7G8; set-up: key to Phenotype, 7G8^7G8: S: sensitive; R: resistant; settings: cited from earlier work
[3] = system: P. falciparum Dd2^M343L; set-up: key to Phenotype, Dd2^M343L: S: sensitive; R: resistant; settings: cited from earlier work
[4] = system: P. falciparum Dd2^3D7; set-up: key: S: sensitive; R: resistant; settings: ref [19],[20],[51]; cited from earlier work
[5] = system: P. falciparum Dd2^G353V; set-up: key to Phenotype, Dd2^G353V: S: sensitive; R: resistant; settings: cited from earlier work
[6] = Host cell confluency, Alamar Blue; type: cell-based, human; settings: human, pH 7; maximum concentration of 4 μM; read-out: Huh-7 cell viability
Procedure: (§1) In vitro inhibition of Plasmodium liver stage infection was assessed using bioluminescence data from Huh-7 cells infected with a firefly-luciferase-expressing P. berghei line, PbGFP-Luccon, in the presence of various compound concentrations. […] One day before drug treatment and infection, 10^4 Huh-7 cells/well were seeded in 96-well plates. The medium was then replaced by an infection medium (culture medium supplemented with 50 μg/mL gentamycin and 0.8 μg/mL amphotericin B) containing desired concentrations of test compounds. Fresh sporozoites recovered from salivary glands of infected female Anopheles stephensi mosquitoes were added to seeded Huh-7 cells at a 1:1 proportion, followed by centrifugation at 1700g for 5 minutes and incubation for 46 hours at 37°C under 5% CO2. Compound toxicity against Huh-7 cells was assessed by measuring […] using the Alamar Blue assay (Invitrogen). IC50 values were calculated using nonlinear regression analysis (GraphPad Prism version 9).

[7] = system: Huh-7 cells; assay: Host cell confluency, Alamar Blue; type: cell-based, human
Procedure: as §1

[8] = system: P. berghei PbGFP-Luccon liver stage; assay: In vitro inhibition of liver stage infection of Huh-7 cells, bioluminescence; type: cell-based, Plasmodium berghei
Procedure: as §1

[9] = system: P. falciparum Dd2-Pol δ parasites; assay: Single-step in vitro resistance selection; type: cell-based, Plasmodium falciparum
Procedure: Resistance to LDT-623 was assessed using single-step in vitro resistance selection protocols. […] Dd2-Pol δ is a hypermutable line with two point mutations in DNA polymerase δ that compromise its proofreading activity Cultures were monitored daily by thin blood smears until live parasites were no longer detectable. Drug-containing media was changed daily until parasites cleared, and every other day thereafter. Cultures were passaged once weekly by reducing the volume by 25% and replacing 1/3 of RBCs. Recrudescence monitoring was carried out twice a week by thin blood smears for 60 days. In the event of recrudescence, parasite susceptibility to LDT-623 was tested as described above.

[10] = MTT cytotoxicity assay, 72 h; type: cell-based, monkey; settings: monkey, COS-7 cells; MTT, 72 h, N = 3
Procedure: (§2) Human hepatoma (HepG2) and fibroblast-like monkey kidney cells (COS-7) were cultured in Dulbecco’s Modified Eagle Medium supplemented with 10% heat-inactivated fetal bovine serum and gentamycin (40 mg/L) at 37°C in a 5% CO2 atmosphere. Cytotoxicity of test compounds was measured by metabolic reduction of mitochondrial enzymes using the MTT assay (3-[4,5-dimethyl-thiazol-2-yl]-2,5-diphenyltetrazolium chloride). Cells were seeded at 10^5 cells/well in 96-well plates and incubated for 72 hours in the presence of a 2-fold 12-point serial dilution of drugs along with drug-free controls. After adding 15 μL of MTT (5 mg/mL) to the wells, plates were centrifuged at 317g for 5 minutes and the pellet was resuspended in isopropanol. Absorbance was measured at 570 nm (CLARIOStar, Labtech BMG). Cell viability was determined by formazan production, and was expressed as a percentage of untreated control wells.

[11] = system: COS-7 cells; assay: MTT cytotoxicity assay, 72 h; type: cell-based, monkey
Procedure: as §2

[12] = Dd2T93S, mean ± SEM, ref 2 (Dhingra et al., 2019)
[13] = 0.01 µM, Rep #1, Rep #2 singly, DMSO = 100
[14] = 0.10 µM, Rep #1, Rep #2 singly, DMSO = 100
[15] = 0.50 µM, Rep #1, Rep #2 singly, DMSO = 100
[16] = 1.00 µM, Rep #1, Rep #2 singly, DMSO = 100
[17] = 1.50 µM, Rep #2 only, DMSO = 100
[18] = 2.00 µM, Rep #1, Rep #2 singly, DMSO = 100
[19] = 3.00 µM, Rep #1, Rep #2 singly, DMSO = 100
[20] = 4.00 µM, Rep #1 only, DMSO = 100

CCN(CC)CCCC(C)Nc1ccnc2cc(Cl)ccc12 (stereo not drawn) [CQ, chloroquine]
IC50 [1, 12]: 61.9 ± 7.6 nM | IC90 [1, 12]: 141 ± 6.3 nM | Phenotype, Dd2^T93S ([1]; ref [19],[20],[51]): R | IC50 ([2]; 7G87G8, mean ± SEM, ref 3 (Kim et al., 2019)): 83 ± 7.5 nM | Phenotype, 7G8^7G8 ([2]; ref [19],[20],[51]): R | IC50 ([3]; Dd2M343L, mean ± SEM, ref 1 (Ross et al., 2018)): 41.8 ± 1.9 nM | Phenotype, Dd2^M343L ([3]; ref [19],[20],[51]): R | Phenotype, Dd2^3D7 [4]: S | IC50 ([5]; Dd2G353V, mean ± SEM, ref 1 (Ross et al., 2018)): 54.6 ± 4.9 nM | Phenotype, Dd2^G353V ([5]; ref [19],[20],[51]): S

COc1cc2nccc(Nc3cccc(Oc4ccccc4)c3)c2cc1OC [LDT-623]
viability at 46 h, 4 µM [6]: > 86% | % Confluency ([7]; 0.01 µM, Average): 101.66% | % Confluency [7, 13]: 99.85% and 103.48% | % Confluency ([7]; 0.10 µM, Average): 101.70% | % Confluency [7, 14]: 101.55% and 101.85% | % Confluency ([7]; 0.50 µM, Average): 106.57% | % Confluency [7, 15]: 104.91% and 108.24% | % Confluency ([7]; 1.00 µM, Average): 99.74% | % Confluency [7, 16]: 99.78% and 99.70% | % Confluency ([7]; 1.50 µM, Average): 103.34% | % Confluency [7, 17]: 103.34% | % Confluency ([7]; 2.00 µM, Average): 99.65% | % Confluency [7, 18]: 99.68% and 99.63% | % Confluency ([7]; 3.00 µM, Average): 92.74% | % Confluency [7, 19]: 93.69% and 91.80% | % Confluency ([7]; 4.00 µM, Average): 86.71% | % Confluency [7, 20]: 86.71% | % Infection ([8]; 0.01 µM, Average): 105.58% | % Infection [8, 13]: 99.71% and 111.44% | % Infection ([8]; 0.10 µM, Average): 109.90% | % Infection [8, 14]: 116.90% and 102.90% | % Infection ([8]; 0.50 µM, Average): 89.46% | % Infection [8, 15]: 98.58% and 80.35% | % Infection ([8]; 1.00 µM, Average): 47.89% | % Infection [8, 16]: 59.84% and 35.94% | % Infection ([8]; 1.50 µM, Average): 16.43% | % Infection [8, 17]: 16.43% | % Infection ([8]; 2.00 µM, Average): 10.50% | % Infection [8, 18]: 13.79% and 7.22% | % Infection ([8]; 3.00 µM, Average): 3.61% | % Infection [8, 19]: 5.04% and 2.18% | % Infection ([8]; 4.00 µM, Average): 3.01% | % Infection [8, 20]: 3.01% | inhibition at 1 µM ([8]; Plasmodium berghei, Huh-7, 1 μM, read-out: inhibition of hepatic infection): 52.1% | IC50 ([8]; Plasmodium berghei, Huh-7 cells, P. berghei sporozoites, 48h, N = 2, read-out: IC50 hepatic stage infection): 983 nM | recrudescence under constant drug pressure ([9]; 3 × IC50 (1 μM), 1 × 10^9 parasites, 60 days): No parasite recrudescence | log minimum inoculum of resistance (MIR) ([9]; constant drug pressure): higher than 9 | day of recrudescence ([9]; drug pressure removed after day 7, both flasks): 21 days | IC50 of recrudescent bulk parasites vs Dd2-Polδ parent ([9]; either flask): no difference in IC50 | CC50 at 72 h [10]: 500 ± 100 nM | SI (CC50 COS-7 / IC50 3D7) [11]: 3.8
